Consider seven compounds from patent US11376249B2 (priority 2017, dated 2022).

What is called inhibition is the relative decrease from the control value, in per cent.

The target in one data set is D2 (Homo sapiens, UniProt P14416). Nature of the data set: biochemical. The settings on record: read-out: inhibition D2.
The next data set deals with D1 (Homo sapiens, UniProt P21728). Nature of the data set: biochemical. As to conditions: read-out: inhibition D1.
Data set [1] can be described thus: Rat tolerance/dependence study (28 day).
Another data set deals with 5-HT2 receptor. Also on record: species or system mice. As to conditions: mouse, in vivo, po.
Data set [2] deals with tyrosine hydroxylase phosphorylation at Ser40. Nature of the data set: CNS phosphoprotein profile, TH. The data set is classed as in vivo, mice. As to conditions: 3 mg/kg, 30 or 60 minutes, nucleus accumbens. On the procedure:
(§1) A comprehensive molecular phosphorylation study is also carried out to examine the central nervous system (CNS) profile of the compounds of Example 1 and Example 3. The extent of protein phosphorylation for selected key central nervous system proteins is measured in mice nucleus accumbens.
(§2) Mice were killed 30 minutes to 2 hours post-injection by focused microwave cranial irradiation, which preserves brain phosphoprotein as it exists at the time of death. The nucleus accumbens was then dissected from each mouse brain, sliced and frozen in liquid nitrogen. Samples were further prepared for phosphoprotein analysis via SDS-PAGE electrophoresis followed by phosphoprotein-specific immunoblotting, as described in Zhu H, et al., Brain Res. 2010 Jun. 25; 1342:11-23. Phosphorylation at each site was quantified, normalized to total levels of the protein (non-phosphorylated), and expressed as percent of the level of phosphorylation in vehicle-treated control mice.

For data set [3], the system named is NR2B phosphorylation at Tyr1472. Nature of the data set: CNS phosphoprotein profile, NR2B. The data set is classed as in vivo, mice. As to conditions: 3 mg/kg, 30-60 minutes, nucleus accumbens. The protocol:
as §1, §2

For data set [4], the system named is GluR1 phosphorylation at Ser845. Nature of the data set: CNS phosphoprotein profile, GluR1. The data set is classed as in vivo, mice. As to conditions: 3 mg/kg, nucleus accumbens. On the procedure:
as §1, §2

The subject of data set [5] is ERK2 phosphorylation at Thr183 and Tyr185. Nature of the data set: CNS phosphoprotein profile, ERK2. It counts as in vivo, mice. As to conditions: 3 mg/kg, nucleus accumbens. The protocol:
as §1, §2

The target in the next data set is Mu opiate receptor (Homo sapiens, UniProt P35372). It counts as binding.
Chain of Mu opiate receptor (P35372 whole entry): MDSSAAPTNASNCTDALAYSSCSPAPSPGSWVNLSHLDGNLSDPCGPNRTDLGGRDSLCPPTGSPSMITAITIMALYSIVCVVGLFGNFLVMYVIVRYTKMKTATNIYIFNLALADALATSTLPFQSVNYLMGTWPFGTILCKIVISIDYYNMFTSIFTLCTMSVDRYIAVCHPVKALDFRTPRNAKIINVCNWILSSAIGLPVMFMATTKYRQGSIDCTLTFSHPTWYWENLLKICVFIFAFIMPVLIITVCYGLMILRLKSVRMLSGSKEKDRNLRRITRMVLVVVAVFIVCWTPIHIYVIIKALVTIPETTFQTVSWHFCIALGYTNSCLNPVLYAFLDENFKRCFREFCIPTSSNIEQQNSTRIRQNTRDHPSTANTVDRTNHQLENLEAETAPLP
The nature of data set [6]: Mouse marble-burying study (OCD model). It counts as in vivo, mice. As to conditions: 20 mg/kg intraperitoneal just prior to test. From the text:
The marble burying test is used to measure repetitive and anxiety-related behavior in rodents. It is based on the observation that rats and mice will bury either harmful or harmless objects in their bedding, and it has been used as an animal model to measure the effect of pharmacological interventions in treatment of repetitive behavior disorders, such as OCD.
MPEP is a selective mGluR5 glutamate receptor antagonist. […] Mice in groups (1) are orally administered the vehicle, and mice in group (4) are given an intraperitoneal injection of MPEP just prior to the start of the test.
The test is conducted in rectangular cages with 4-5 cm of wood chip bedding in a room with the window shades lowered and the door closed to minimize distractions. Fifteen clean marbles are evenly spaced on top of the bedding in three rows of five marbles. One mouse is placed in each cage. The mouse and cage is left undisturbed for 30 minutes. At the end of the test, the mouse is removed and the number of marbles buried to at least ⅔ of their depth is counted.

SMILES strings stand for the structures.

Chain of D2 (P14416 whole entry): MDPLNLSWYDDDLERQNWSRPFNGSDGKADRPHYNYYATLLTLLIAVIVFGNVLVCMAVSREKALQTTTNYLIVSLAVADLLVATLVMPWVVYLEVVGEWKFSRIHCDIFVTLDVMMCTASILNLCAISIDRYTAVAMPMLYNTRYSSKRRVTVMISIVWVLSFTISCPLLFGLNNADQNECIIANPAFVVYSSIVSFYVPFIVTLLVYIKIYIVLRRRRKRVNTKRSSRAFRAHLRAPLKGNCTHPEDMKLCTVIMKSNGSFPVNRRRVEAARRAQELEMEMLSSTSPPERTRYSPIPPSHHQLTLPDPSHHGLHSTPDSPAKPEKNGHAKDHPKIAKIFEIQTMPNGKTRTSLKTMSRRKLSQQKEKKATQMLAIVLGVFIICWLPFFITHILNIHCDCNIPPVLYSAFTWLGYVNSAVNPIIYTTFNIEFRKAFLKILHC
Chain of D1 (P21728 whole entry): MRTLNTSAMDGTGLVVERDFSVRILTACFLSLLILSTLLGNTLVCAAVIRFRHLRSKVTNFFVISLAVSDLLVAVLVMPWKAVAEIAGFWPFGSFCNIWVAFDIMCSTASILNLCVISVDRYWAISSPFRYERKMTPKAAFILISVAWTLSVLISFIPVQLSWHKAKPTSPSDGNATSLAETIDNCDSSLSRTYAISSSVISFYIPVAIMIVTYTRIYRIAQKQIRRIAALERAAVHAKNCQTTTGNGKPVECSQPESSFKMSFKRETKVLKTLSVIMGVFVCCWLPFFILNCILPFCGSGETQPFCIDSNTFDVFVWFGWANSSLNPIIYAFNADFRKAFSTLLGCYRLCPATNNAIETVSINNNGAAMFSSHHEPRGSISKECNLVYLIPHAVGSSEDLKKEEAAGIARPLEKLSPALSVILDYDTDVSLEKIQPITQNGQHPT

Consider `O=C1CN2c3c(cccc3[C@@H]3CN(CCCC(O)c4ccc(F)cc4)CC[C@@H]32)N1` (stereo partly drawn) [Example 2, 4-((6bR,10aS)-2-oxo-2,3,6b,9,10,10a-hexahydro-1H,7H-pyrido[3′,4′:4,5]pyrrolo[1,2,3-de]quinoxalin-8-yl)-1-(4-fluoro-phenyl)-butan-1-ol], for which the inhibition at […] on D2 came to 11%. Moreover, the inhibition at 0.1 µM at D1 came out at 13%.
On to `CN1CC[C@]23c4c5ccc(O)c4O[C@H]2[C@@H](O)C=C[C@H]3[C@H]1C5` [Morphine, reference compound], for which the tolerance and dependence entry in [1] (30 mg/kg orally twice per day) was “clear signs of tolerance and dependence”.
In the case of `O=C1CN2c3c(cccc3[C@@H]3CN(CCCOc4ccc(F)cc4)CC[C@@H]32)N1` [Example 3, (6bR,10aS)-8-(3-(4-fluorophenoxy)propyl)-6b,7,8,9,10,10a-hexahydro-1H-pyrido[3′,4′:4,5]pyrrolo[1,2,3-de]quinoxalin-2(3H)-one], the “EC50 for reducing DOI-induced head twitches” value with 5-HT2 receptor was 0.44 mg/kg. Besides, the “predominant behavioral and physical effects” value in [1] (0.3 mg/kg, dosing phase) is “hunched posture, Straub tail and piloerection”. In data set [1] (0.3 and 3 mg/kg s.c., 28 days), the tolerance entry was “does not produce tolerance”. Moreover, in data set [1] (0.3 and 3 mg/kg s.c., on-dose or withdrawal phase), the “effect on body weight, food and water intake or body temperature” value is “no significant effect”.
Take `CN1CCN2c3c(cccc31)[C@@H]1CN(CCCC(O)c3ccc(F)cc3)CC[C@@H]12` (stereo partly shown) [Formula B, reference compound]: the “EC50 for reducing DOI-induced head twitches” value with 5-HT2 receptor amounted to 0.31 mg/kg.
As for `O=C1CN2c3c(cccc3[C@@H]3CN(CCCC(=O)c4ccc(F)cc4)CC[C@@H]32)N1` [Example 1, 4-((6bR,10aS)-2-oxo-2,3,6b,9,10,10a-hexahydro-1H,7H-pyrido[3′,4′:4,5]pyrrolo[1,2,3-de]quinoxalin-8-yl)-1-(4-fluoro-phenyl)-butan-1-one], the “EC50 for reducing DOI-induced head twitches” value in the data set on 5-HT2 receptor was found to be 0.23 mg/kg. Also, the “effect on tyrosine hydroxylase phosphorylation at Ser40” value in [2] is “neither the compound of Example 1 nor of Example 3 has a significant effect”. In addition, the “effect on NR2B phosphorylation at Tyr1472” value in data set [3] is given as “neither the compound of Example 1 nor of Example 3 has a significant effect”. For the same compound, in [4], the “GluR1 phosphorylation at Ser845” value is recorded as “slight increase”. In addition, in data set [5], the “ERK2 phosphorylation at Thr183 and Tyr185” value is reported as “slight decrease”. In addition, the inhibition at […] on D2 is 47%.
In the case of `CN1CCN2c3c(cccc31)[C@@H]1CN(CCCC(=O)c3ccc(F)cc3)CC[C@@H]12` [Formula A, reference compound], on Mu opiate receptor, the “activity at the Mu opiate receptor” value was “not active”.
As to `Cc1cccc(C#Cc2ccccc2)n1` [MPEP, 2-methyl-6-(phenylethynyl)pyridine], in data set [6], the “Marbles Buried” value is 0.2.
